Test results as given in US20200246298A1, “Composition for Preventing or Treating Asthma Comprising Fatty Acid as Active Ingredient” (Dongshin University Industry-Academy Cooperation, priority 2019, published 2020).

Assays:
[1] = tested on: eosinophils, mucus and epithelial hyperplasia; test: H&E staining of lung tissue, OVA-induced asthma; type: in vivo, BALB/c mice; conditions: 5 days, vs OVA-sensitized group
Experimental: In test groups, the animals determined to be healthy during the acclimation period were ranked by measuring the weight, and were randomly grouped so that the average weight of each group was uniform. The animals were divided into a total of 9 groups: a control group; a control group with OVA-induced asthma; a positive control group; groups administered with each of 50 mg/kg, 125 mg/kg and 250 mg/kg of oleic acid; and groups administered with each of 5 mg/kg, 25 mg/kg and 50 mg/kg of palmitic acid. The animals were sensitized via intraperitoneal injection of OVA once a week for 2 weeks after the acclimation period. During 5 days of week 3, dexamethasone (DEX) and the test substances oleic acid and palmitic acid were orally administered in the morning and 5% OVA solution was inhaled in the afternoon. The test substance was orally administered in an amount of 28 μL per weight (g) of the experimental animal, and OVA for sensitization was administered in a constant amount regardless of the weight. After 5 days of administration, autopsy was performed the next day. Storage of tissue: ½ of the autopsy tissue was frozen quickly in liquid nitrogen, stored in an ultralow-temperature freezer or liquid nitrogen container (about −75 ° C.), and used for PCR/Western blotting, and the remaining ½ was stored in 10% formalin solution and used for histopathology and immunohistochemistry (IHC). […]

[2] = tested on: IgE; test: Analysis of IgE in BALF (Mouse IgE ELISA), OVA-induced asthma; type: in vivo, BALB/c mice; conditions: 5 days, vs OVA-sensitized group
Experimental: In test groups, the animals determined to be healthy during the acclimation period were ranked by measuring the weight, and were randomly grouped so that the average weight of each group was uniform. The animals were divided into a total of 9 groups: a control group; a control group with OVA-induced asthma; a positive control group; groups administered with each of 50 mg/kg, 125 mg/kg and 250 mg/kg of oleic acid; and groups administered with each of 5 mg/kg, 25 mg/kg and 50 mg/kg of palmitic acid. The animals were sensitized via intraperitoneal injection of OVA once a week for 2 weeks after the acclimation period. During 5 days of week 3, dexamethasone (DEX) and the test substances oleic acid and palmitic acid were orally administered in the morning and 5% OVA solution was inhaled in the afternoon. The test substance was orally administered in an amount of 28 μL per weight (g) of the experimental animal, and OVA for sensitization was administered in a constant amount regardless of the weight. After 5 days of administration, autopsy was performed the next day. Immunoglobulin E (IgE) is a type of protein called antibody that plays an important role in allergic reactions. When IgE is exposed to a certain substance, the immune system begins to produce IgE in order to protect the body. […] 50 μL of a stop solution was added to each well, and the absorbance at 450 nm was measured.

Row | Structure (SMILES) | eosinophils, mucus and epithelial hyperplasia (H&E staining) ([1]; oleic acid 50, 125, 250 mg/kg oral, FIG. 15) | quantity of IgE ([2]; oleic acid 50, 125, 250 mg/kg oral, FIG. 13) | eosinophils, mucus and epithelial hyperplasia (H&E staining) ([1]; palmitic acid 5, 25, 50 mg/kg oral, FIG. 16) | quantity of IgE ([2]; palmitic acid 5, 25, 50 mg/kg oral, FIG. 14)
1 | CCCCCCCC/C=C\CCCCCCCC(=O)O [oleic acid] | dose-dependently decreased | dose-dependently decreased | – | –
2 | CCCCCCCCCCCCCCCC(=O)O [palmitic acid] | – | – | dose-dependently decreased | dose-dependently decreased
